Reference: publication PMC3274641 (Bioorganic & medicinal chemistry letters, 2011)
“Also recorded” adds a separate entry of the source. Read-outs that look alike come from different tables or passages of the source.

Tests used:
Hα3β4 nAChRs [1] = biological target: T1, Hα3β4 nAChRs (Homo sapiens, UniProt P30926+P32297); settings: scaffolds; previously reported data; cited from earlier work
Hα4β2 nAChRs [2] = biological target: T2, Hα4β2 nAChRs (Homo sapiens, UniProt P17787+P43681); settings: scaffolds; previously reported data; cited from earlier work
T2 sequence (P43681 29-627 limits assumed): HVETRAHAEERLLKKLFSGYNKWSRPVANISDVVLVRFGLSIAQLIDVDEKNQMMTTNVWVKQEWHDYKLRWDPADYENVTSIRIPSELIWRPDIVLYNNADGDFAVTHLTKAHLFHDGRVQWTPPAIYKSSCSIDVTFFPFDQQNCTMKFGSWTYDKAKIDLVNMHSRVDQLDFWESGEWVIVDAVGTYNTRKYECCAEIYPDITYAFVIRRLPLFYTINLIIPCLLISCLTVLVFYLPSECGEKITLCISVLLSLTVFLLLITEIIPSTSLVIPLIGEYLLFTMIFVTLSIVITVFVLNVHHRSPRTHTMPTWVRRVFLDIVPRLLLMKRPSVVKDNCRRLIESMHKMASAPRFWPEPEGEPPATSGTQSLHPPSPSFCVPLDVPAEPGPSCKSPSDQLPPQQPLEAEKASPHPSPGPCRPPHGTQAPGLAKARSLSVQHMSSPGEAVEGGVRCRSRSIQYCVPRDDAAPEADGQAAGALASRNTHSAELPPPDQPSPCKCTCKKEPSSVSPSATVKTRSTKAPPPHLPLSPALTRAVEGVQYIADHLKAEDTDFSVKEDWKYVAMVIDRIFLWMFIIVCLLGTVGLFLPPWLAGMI
T2 sequence (P17787 26-502): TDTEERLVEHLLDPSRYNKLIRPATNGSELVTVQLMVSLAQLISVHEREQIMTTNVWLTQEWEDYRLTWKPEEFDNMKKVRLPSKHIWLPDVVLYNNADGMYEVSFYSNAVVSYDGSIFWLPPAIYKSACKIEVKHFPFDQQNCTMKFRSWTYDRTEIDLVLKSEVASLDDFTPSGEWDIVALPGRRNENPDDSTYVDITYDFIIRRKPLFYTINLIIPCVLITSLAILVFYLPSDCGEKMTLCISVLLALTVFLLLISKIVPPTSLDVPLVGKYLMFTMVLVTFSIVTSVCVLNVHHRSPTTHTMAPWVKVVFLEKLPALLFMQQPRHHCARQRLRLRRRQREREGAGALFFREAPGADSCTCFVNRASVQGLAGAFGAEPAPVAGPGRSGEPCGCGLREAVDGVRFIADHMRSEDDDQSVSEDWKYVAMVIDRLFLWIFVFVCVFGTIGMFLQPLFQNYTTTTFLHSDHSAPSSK

Hα4β2 nAChRs [3] = biological target: T2, Hα4β2 nAChRs; assay: cell-based; type: cell-based; settings: for fold more potent than lead molecule KAB-18: Hα4β2 nAChRs
Hα3β4 nAChRs [4] = biological target: T1, Hα3β4 nAChRs; assay: Inhibition of Hα3β4 nAChRs by NAMs; type: cell-based; settings: for change in potency on Hα3β4 nAChRs compared to scaffolds (in words): scaffolds KAB-18, KAB-24, COB-4, respectively
[5] = at the 1 year mark; agonist-antagonist therapy in combination with the nicotine patch; cited from earlier work

T1 sequence (P32297 32-505): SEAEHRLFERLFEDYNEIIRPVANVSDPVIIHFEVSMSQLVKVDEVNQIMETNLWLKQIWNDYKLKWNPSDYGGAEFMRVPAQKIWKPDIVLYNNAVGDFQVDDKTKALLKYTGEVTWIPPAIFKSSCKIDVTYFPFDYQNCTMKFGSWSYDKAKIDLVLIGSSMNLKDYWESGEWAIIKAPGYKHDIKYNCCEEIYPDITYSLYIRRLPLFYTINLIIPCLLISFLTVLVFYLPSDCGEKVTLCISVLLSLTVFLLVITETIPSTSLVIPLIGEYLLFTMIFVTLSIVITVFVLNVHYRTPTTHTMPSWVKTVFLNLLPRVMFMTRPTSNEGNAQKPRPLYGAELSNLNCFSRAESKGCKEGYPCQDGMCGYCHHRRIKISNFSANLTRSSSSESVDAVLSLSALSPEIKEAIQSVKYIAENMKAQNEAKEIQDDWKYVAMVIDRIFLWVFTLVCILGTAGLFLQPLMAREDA
T1 sequence (P30926 22-498): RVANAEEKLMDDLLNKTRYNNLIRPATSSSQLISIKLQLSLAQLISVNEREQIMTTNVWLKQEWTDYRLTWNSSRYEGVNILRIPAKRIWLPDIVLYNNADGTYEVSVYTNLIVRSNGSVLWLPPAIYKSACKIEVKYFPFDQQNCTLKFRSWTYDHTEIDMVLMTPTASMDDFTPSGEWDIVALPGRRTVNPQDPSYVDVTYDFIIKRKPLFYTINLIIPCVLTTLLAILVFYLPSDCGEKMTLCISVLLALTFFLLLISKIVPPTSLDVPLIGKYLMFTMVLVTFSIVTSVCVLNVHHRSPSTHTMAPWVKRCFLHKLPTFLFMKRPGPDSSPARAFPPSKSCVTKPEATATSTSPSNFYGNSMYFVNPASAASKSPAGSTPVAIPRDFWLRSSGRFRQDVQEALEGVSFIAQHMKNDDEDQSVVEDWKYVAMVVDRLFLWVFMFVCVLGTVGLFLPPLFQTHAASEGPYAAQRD

SMILES: O=C(OCC1CCN(CCCc2ccccc2)CC1)c1ccccc1-c1ccccc1 [COB-4]
- nH, Hill coefficient, Hα3β4 nAChRs (Hα3β4 nAChRs [1]): −1.0
- nH, Hill coefficient, Hα4β2 nAChRs (Hα4β2 nAChRs [2]): −0.8

SMILES: O=C(NCc1ccccc1)c1ccccc1-c1ccccc1 [COB-170]
- selectivity for Hα4β2 nAChRs over Hα3β4 nAChRs (in words) (Hα4β2 nAChRs [3]): nonselective
- nH, Hill coefficient, Hα4β2 nAChRs (Hα4β2 nAChRs [3]; COB series): −1.1
- fold more potent than lead molecule KAB-18 (Hα4β2 nAChRs [3]): 2 fold
- IC50 (Hα3β4 nAChRs [4]): 8.5 µM
- nH, Hill coefficient, Hα3β4 nAChRs (Hα3β4 nAChRs [4]; COB series): −1.8

SMILES: O=C(Nc1ccccc1)c1ccccc1-c1ccccc1 [COB-171]
- selectivity for Hα4β2 nAChRs over Hα3β4 nAChRs (in words) (Hα4β2 nAChRs [3]): nonselective
- nH, Hill coefficient, Hα4β2 nAChRs (Hα4β2 nAChRs [3]; COB series): −1.3
- fold more potent than lead molecule KAB-18 (Hα4β2 nAChRs [3]): 2 fold
- nH, Hill coefficient, Hα3β4 nAChRs (Hα3β4 nAChRs [4]; COB series): −2.2

SMILES: O=C(NCc1cccc2ccccc12)c1ccccc1-c1ccccc1 [COB-172]
- selectivity for Hα4β2 nAChRs over Hα3β4 nAChRs (in words) (Hα4β2 nAChRs [3]): maintained selectivity for Hα4β2 nAChRs
- nH, Hill coefficient, Hα4β2 nAChRs (Hα4β2 nAChRs [3]; COB series): −0.7
- change in potency on Hα4β2 nAChRs (in words) (Hα4β2 nAChRs [3]; compared to lead molecule KAB-18): no change in potency; also recorded: maintained potency
- nH, Hill coefficient, Hα3β4 nAChRs (Hα3β4 nAChRs [4]; COB series): −0.4

SMILES: O=C(Nc1ccccn1)c1ccccc1-c1ccccc1 [COB-173]
- selectivity for Hα4β2 nAChRs over Hα3β4 nAChRs (in words) (Hα4β2 nAChRs [3]): nonselective
- nH, Hill coefficient, Hα4β2 nAChRs (Hα4β2 nAChRs [3]; COB series): −1.0
- nH, Hill coefficient, Hα3β4 nAChRs (Hα3β4 nAChRs [4]; COB series): −0.9

SMILES: O=C(Nc1ccncn1)c1ccccc1-c1ccccc1 [COB-174]
- selectivity for Hα4β2 nAChRs over Hα3β4 nAChRs (in words) (Hα4β2 nAChRs [3]): nonselective
- nH, Hill coefficient, Hα4β2 nAChRs (Hα4β2 nAChRs [3]; COB series): −1.5
- nH, Hill coefficient, Hα3β4 nAChRs (Hα3β4 nAChRs [4]; COB series): −0.9

SMILES: O=C(Nc1cccc2ccccc12)c1ccccc1-c1ccccc1 [COB-175]
- nH, Hill coefficient, Hα4β2 nAChRs (Hα4β2 nAChRs [3]; COB series): −0.8
- fold preference for Hα4β2 nAChRs (Hα4β2 nAChRs [3]; over Hα3β4 nAChRs): 2 fold
- nH, Hill coefficient, Hα3β4 nAChRs (Hα3β4 nAChRs [4]; COB series): −1.2

SMILES: O=C(OC1CCCN(CCCc2ccccc2)C1)c1ccccc1-c1ccccc1 (centres unmarked) [DDR-14]
- nH, Hill coefficient, Hα3β4 nAChRs (Hα3β4 nAChRs [1]): −1.4
- nH, Hill coefficient, Hα4β2 nAChRs (Hα4β2 nAChRs [2]): −1.6

SMILES: O=C(OCC1CCCN(CCCc2ccccc2)C1)c1ccccc1-c1cccc2ccccc12 (centres unmarked) [FFB-1]
- Obs. [SI] QSSR (Hα4β2/Hα3β4) (Hα4β2 nAChRs [3]; training set, selectivity Hα4β2 vs Hα3β4): 1.29
- IC50 (Hα3β4 nAChRs [4]): 178 µM

SMILES: O=C(OC1CCCN(C(=O)CCc2ccccc2)C1)c1ccccc1-c1ccccc1 (centres unmarked) [IMB-132]
- IC50 (Hα4β2 nAChRs [3]): 2.7 µM
- nH, Hill coefficient, Hα4β2 nAChRs (Hα4β2 nAChRs [3]; IMB series): −1.6
- nH, Hill coefficient, Hα3β4 nAChRs (Hα3β4 nAChRs [4]; IMB series): −1.6
- fold decrease in potency on Hα3β4 nAChRs compared to scaffold molecule (Hα3β4 nAChRs [4]; compared to DDR-14): 2 fold

SMILES: O=C(OCC1CCCN(C(=O)CCc2ccccc2)C1)c1ccccc1C(F)(F)F (centres unmarked) [IMB-134]
- nH, Hill coefficient, Hα4β2 nAChRs (Hα4β2 nAChRs [3]; IMB series): −1.5
- nH, Hill coefficient, Hα3β4 nAChRs (Hα3β4 nAChRs [4]; IMB series): −2.1
- change in potency on Hα3β4 nAChRs compared to scaffolds (in words) (Hα3β4 nAChRs [4]): no change in potency

SMILES: O=C(OCC1CCN(C(=O)CCc2ccccc2)CC1)c1ccccc1-c1ccccc1 [IMB-135]
- nH, Hill coefficient, Hα3β4 nAChRs (Hα3β4 nAChRs [4]; IMB series): −1.5
- change in potency on Hα3β4 nAChRs compared to scaffolds (in words) (Hα3β4 nAChRs [4]): no change in potency

SMILES: O=C(OCC1CCCN(CCCc2ccccc2)C1)c1ccccc1-c1ccccc1 (centres unmarked) [KAB-18]
- nH, Hill coefficient, Hα4β2 nAChRs (Hα4β2 nAChRs [2]): −1.4

SMILES: O=C(OCC1CCCN(CCCc2ccccc2)C1)c1ccccc1C(F)(F)F (centres unmarked) [KAB-24]
- nH, Hill coefficient, Hα3β4 nAChRs (Hα3β4 nAChRs [1]): −0.8
- nH, Hill coefficient, Hα4β2 nAChRs (Hα4β2 nAChRs [2]): −0.8

SMILES: CNC1(C)C2CCC(C2)C1(C)C (centres unmarked) [Mecamylamine]
- abstinence [5]: 40%
